Source: patent US20150152122A1, “TYROSINASE INHIBITORS” (Avon Products, Inc., priority 2013, published 2015)

How the values were obtained:
B16 mouse melanoma cells = experiment: Inhibition of melanin production in B16 melanoma cell assay; type: cell-based; conditions: 4 days, normalized to cell viability (MTT), alpha MSH 2 ng/ml
Description: The effects of various test compounds on melanin levels were determined by performing assays using B16 melanoma cells. These cells are known to constitutively produce melanin and are a commonly utilized and accepted model system for monitoring the inhibition of melanin synthesis. The B16 mouse melanoma cells were seeded (ATCC, cat. #: CRL-6475) into 96-well tissue culture-treated plates (BD Falcon) and treated with test actives or controls in phenol red free DMEM (Mediatech; cat. #: 17-205-CV) with 2 nanogram/ml of alpha MSH (Fluka; cat #: 63605). The cells were examined for their ability to modulate pigment formation. […] Tests were performed in 6 replicates each. Following the treatment period (4 days), the level of pigment produced or melanin synthesized was quantified by reading the absorbance at 540 nm using a standard microplate reader (Tecan Group Ltd.).
After quantifying the amount of melanin, cell viability was determined using the MTT conversion method. The MTT conversion method measures the reduction of the MTT dye from a yellow colored, water-soluble, tetrazolium salt to a bluish-purple colored insoluble formazan precipitate by NAD(P)H-dependent microsomal dehydrogenase enzymes, which only function in viable cells. The intensity of the blue color is indicative of cell viability. After quantifying the amount of melanin pigment produced, the cells were exposed to MTT dye solution (1 mg/ml) for two to three hours. Formazan material was solubilized with reagent alcohol (95% ethanol: 5% isopropanol) and shaken on an orbital shaker for 15-30 minutes. MTT dye uptake and conversion by viable cells were determined by measuring the extracted formazan at 570 nm using a microplate reader. Total pigmentation was calculated, normalized to cell viability values and expressed as the average percent change in melanin activity relative to control of the six experiments performed.

Mushroom tyrosinase = Mushroom tyrosinase assay; type: biochemical; conditions: percent change vs DMSO vehicle, L-Tyrosine substrate, 25° C., 30 min
Description: Mushroom tyrosinase and L-Tyrosine were obtained from Sigma-Aldrich, Inc. (St. Louis, Mo.). The enzyme activity was measured in buffer containing 100 mM phosphate buffer pH 6.8, 5% absolute ethanol, 2 micrograms/milliiliter mushroom tyrosinase, and 0.2 mg/ml L-Tyrosine. The reaction (conversion of L-Tyrosine to DOPAchrome) was conducted in triplicates at 25° C. for 30 min, and absorbance was then measured at 492 nm. Kojic Acid was used as a positive control inhibitor in these assays. Percent change in tyrosinase activity relative to vehicle control was calculated.

[1] = test system: MELANODERM (MEL-300-B) human skin model; experiment: 3D skin equivalent tissue pigmentation assay (MELANODERM); type: cell-based; conditions: topical 10 μl, Day 11
Description: The effect of the tyrosinase inhibitors on melanin levels was investigated using a MELANODERM™ (MEL-300-B, MatTek Corp., Ashland, Mass.) human skin model. MELANODERM™ is a viable reconstituted three-dimensional human skin equivalent containing melanocytes derived from African-American donors. Tissues were maintained in culture medium EPI-100-NMM-113 at 37° C. as recommended by the manufacturer.
The compounds were dissolved in either 69% propylene glycol+30% EtOH+1% DMSO or 70% propylene glycol+30% EtOH desired concentration (w/v). 10 μl of the solution was applied topically to the MELANODERMTM tissue while culture medium was added on days 1, 2, 4, 7, and 9. Control tissues were treated with the 10 μl of corresponding vehicle only. On Day 11, tissues were collected and homogenized in a buffer containing 1% SDS, 50 mM EDTA, and 10 mM Tris, pH 6.8. To each homogenate, protease K (5 mg/ml) was added and incubated overnight at 45° C. Additional protease K was added and incubated for 4 hours at 45° C., followed by the addition of 0.5M sodium carbonate and 30% H2O2 and incubation at 80° C. for 30 minutes. The samples were cooled down to room temperature, and extracted with chloroform/methanol (2:1). After centrifugation at 10,000 g for 10 minutes, absorbance of the top phase was measured at 450 nm. Percent change in melanin levels in treated tissue was calculated relative to control. The average percent change in melanin relative to control of the three tissues is reported in the Table 5 in accordance with the scale: 0: <7% decrease in pigmentation level; +: between 8-14% decrease; ++: between 15-20% decrease; +++: between 21-30% decrease; ++++: >31% decrease; C=cytotoxic

[2] = test system: Human Epidermal Melanocytes, neonatal, darkly pigmented donor (HEMn-DP); experiment: Human Primary Melanocyte Pigmentation Assay (HEMn-DP); type: cell-based; conditions: 5 days, normalized to cell viability
Description: The effects of various test compounds on melanin productions were determined by performing assays using Human Epidermal Melanocytes, neonatal, darkly pigmented donor (HEMn-DP). The HEMn-DP cells were seeded (Invitrogen; cat. #: C-202-5C) into 6-well tissue culture-treated plates (BD Falcon) and treated with test actives or controls in Medium 254 (Invitrogen; cat. #: M-254-500) supplemented with 1% HMSG (Invitrogen; cat. #: S-002-5) and 1% PS. The cells were examined for their ability to modulate pigment formation. […] Tests were performed in triplicates each. Following the treatment period (5 days), supernatants were aspirated. The melanin was extracted with 0.5 ml of 2N NaOH for 30 minutes at 80° C. The level of melanin synthesized within the cells was quantified by reading the absorbance at 405 nm using a standard microplate reader (Tecan Group Ltd.).
The cell viability was determined using the MTT conversion method. The MTT conversion method measures the reduction of the MTT dye from a yellow colored, water-soluble, tetrazolium salt to a bluish-purple colored insoluble formazan precipitate by NAD(P)H-dependent microsomal dehydrogenase enzymes, which only function in viable cells. […] MTT dye uptake and conversion by viable cells were determined by measuring the extracted formazan at 570 nm using a microplate reader. Total pigmentation was calculated and normalized to cell viability values. […]

human skin explants = experiment: Melanin production in human skin explants; type: cell-based; conditions: human skin explant
Description: The effects of test compound AV7909 on melanin levels in human skin explants were determined relative to a DMSO control and Kojic Acid benchmark.

Structure (SMILES)	Tyrosinase Activity relative to Vehicle Control (Mushroom tyrosinase; concentration 0.0010%)	Tyrosinase Activity relative to Vehicle Control (Mushroom tyrosinase; concentration 0.0100%)	B16 Assay Percent Change Melanin Compared to Vehicle (B16 mouse melanoma cells; concentration 0.0010%)	B16 Assay Percent Change Melanin Compared to Vehicle (B16 mouse melanoma cells; concentration 0.0001%)	3D Tissue Pigmentation Assay (change in melanin compared to vehicle control) ([1]; concentration 0.05% (w/v))	3D Tissue Pigmentation Assay (change in melanin compared to vehicle control) ([1]; concentration 0.1% (w/v))	3D Tissue Pigmentation Assay (change in melanin compared to vehicle control) ([1]; concentration 0.25% (w/v))	HUMAN PRIMARY MELANOCYTE PIGMENTATION ASSAY (change in melanin compared to DMSO vehicle control) ([2]; concentration 0.0001%)	HUMAN PRIMARY MELANOCYTE PIGMENTATION ASSAY (change in melanin compared to DMSO vehicle control) ([2]; concentration 0.001%)	3D Tissue Pigmentation Assay (change in melanin compared to vehicle control) ([1]; concentration 0.5% (w/v))	Pigment Production (percent change in melanin compared to DMSO vehicle control) (human skin explants; concentration 0.1%)	Pigment Production (percent change in melanin compared to DMSO vehicle control) (human skin explants; concentration 0.5%)
S=c1nc(-c2cccs2)cn[nH]1 [AV4926]	−75%	−53%	−49%	–	–	–	–	–	–	–	–	–
S=c1[nH]nc(-c2ccc3c(c2)OCO3)o1 [AV5828]	−48%	−77%	−30%	−13%	–	–	–	–	–	–	–	–
O=c1cc(CO)occ1O [Kojic Acid, Kojic acid (5-hydroxy-4-pyran-4-one-2-methyl), reference compound]	–	–	–	–	–	–	–	–	–	–	−23%	–

More lines, main results first:

Tyrosinase Activity relative to Vehicle Control (Mushroom tyrosinase; concentration 0.0010%)	Tyrosinase Activity relative to Vehicle Control (Mushroom tyrosinase; concentration 0.0100%)	Structure (SMILES)	B16 Assay Percent Change Melanin Compared to Vehicle (B16 mouse melanoma cells; concentration 0.0010%)	B16 Assay Percent Change Melanin Compared to Vehicle (B16 mouse melanoma cells; concentration 0.0001%)	3D Tissue Pigmentation Assay (change in melanin compared to vehicle control) ([1]; concentration 0.05% (w/v))	3D Tissue Pigmentation Assay (change in melanin compared to vehicle control) ([1]; concentration 0.1% (w/v))	3D Tissue Pigmentation Assay (change in melanin compared to vehicle control) ([1]; concentration 0.25% (w/v))	HUMAN PRIMARY MELANOCYTE PIGMENTATION ASSAY (change in melanin compared to DMSO vehicle control) ([2]; concentration 0.0001%)	HUMAN PRIMARY MELANOCYTE PIGMENTATION ASSAY (change in melanin compared to DMSO vehicle control) ([2]; concentration 0.001%)	3D Tissue Pigmentation Assay (change in melanin compared to vehicle control) ([1]; concentration 0.5% (w/v))	Pigment Production (percent change in melanin compared to DMSO vehicle control) (human skin explants; concentration 0.1%)	Pigment Production (percent change in melanin compared to DMSO vehicle control) (human skin explants; concentration 0.5%)
−73%	−49%	Sc1nnc2sc3ccccc3n12 [AV0442]	−19%	–	–	–	–	–	–	–	–	–
–	−81%	CC(C)c1nc(=S)[nH]n1-c1ccccc1 [AV1973]	−60%	−17%	–	–	–	–	–	–	–	–
−74%	−70%	Cn1c2ccccc2n2c(=S)[nH]nc12 [AV7533]	−63%	−31%	+ (between 8-14% decrease)	+ (between 8-14% decrease)	++ (between 15-20% decrease)	0 (<10% decrease in pigmentation level)	++ (between 31-50% decrease)	–	–	–
−82%	−70%	Cc1cc(C)n(-c2ccc(=S)[nH]n2)n1 [AV7909]	−79%	−17%	–	++ (between 15-20% decrease)	+++ (between 21-30% decrease)	–	–	++++ (>31% decrease)	−17%	−28%
